In PubChem BioAssay (NCI):
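GI50 marks 50% less growth. TGI: concentration producing complete growth inhibition.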

Legend:
Assay in all cases: NCI anticancer screen, dose series, 384-well format
NCI-H226 lung = test system: NCI-H226 lung
NCI-H23 lung = test system: NCI-H23 lung
NCI-H322M lung = test system: NCI-H322M lung
NCI-H460 NSCLC = test system: NCI-H460 NSCLC
NCI-H522 lung = test system: NCI-H522 lung
NCI/ADR-RES ovarian = test system: NCI/ADR-RES ovarian
OVCAR-3 ovarian = test system: OVCAR-3 ovarian
OVCAR-4 ovarian = test system: OVCAR-4 ovarian
OVCAR-5 ovarian = test system: OVCAR-5 ovarian
OVCAR-8 ovarian = test system: OVCAR-8 ovarian
PC-3 prostate = test system: PC-3 prostate
RPMI-8226 leukemia = test system: RPMI-8226 leukemia
RXF 393 renal = test system: RXF 393 renal
SF-268 CNS = test system: SF-268 CNS
SF-295 CNS = test system: SF-295 CNS
SF-539 CNS = test system: SF-539 CNS
SK-MEL-28 melanoma = test system: SK-MEL-28 melanoma
SK-MEL-5 melanoma = test system: SK-MEL-5 melanoma
SK-OV-3 ovarian = test system: SK-OV-3 ovarian
SN12C renal = test system: SN12C renal
SNB-19 CNS = test system: SNB-19 CNS
SNB-75 CNS = test system: SNB-75 CNS
SR leukemia = test system: SR leukemia
SW-620 colon = test system: SW-620 colon
T-47D breast = test system: T-47D breast
TK-10 renal = test system: TK-10 renal
U251 glioblastoma = test system: U251 glioblastoma
UACC-257 melanoma = test system: UACC-257 melanoma
UO-31 renal = test system: UO-31 renal

## NC(=O)c1ccc(-c2nc(-c3ccc4c(c3)OCO4)c(-c3ccccn3)[nH]2)cc1
NCI-H226 lung
  GI50: 17.2 µM
  TGI: 32.7 µM
NCI-H23 lung
  GI50: 22 µM
  TGI: 47.7 µM
NCI-H322M lung
  GI50: 27.9 µM
  TGI: 90.6 µM
NCI-H460 NSCLC
  GI50: 14.4 µM
  TGI: 28.1 µM
NCI-H522 lung
  GI50: 24.2 µM
  TGI: 46.1 µM
NCI/ADR-RES ovarian
  GI50: 16.4 µM
  TGI: 33.3 µM
OVCAR-3 ovarian
  GI50: 21.6 µM
  TGI: 47.1 µM
OVCAR-4 ovarian
  GI50: 26.7 µM
  TGI: 71.6 µM
OVCAR-5 ovarian
  GI50: 26.6 µM
  TGI: 81.9 µM
OVCAR-8 ovarian
  GI50: 22.6 µM
  TGI: 52.2 µM
PC-3 prostate
  GI50: 27.2 µM
  TGI: > 100 µM
RPMI-8226 leukemia
  GI50: 15.7 µM
  TGI: 30.4 µM
RXF 393 renal
  GI50: 11.9 µM
  TGI: 26.8 µM
SF-268 CNS
  GI50: 38 µM
  TGI: > 100 µM
SF-295 CNS
  GI50: 20.2 µM
  TGI: 43.3 µM
SF-539 CNS
  GI50: 41.8 µM
  TGI: > 100 µM
SK-MEL-28 melanoma
  GI50: 32.9 µM
  TGI: 86.5 µM
SK-MEL-5 melanoma
  GI50: 7.13 µM
  TGI: 19.5 µM
SK-OV-3 ovarian
  GI50: 24.3 µM
  TGI: 64.9 µM
SN12C renal
  GI50: 39.1 µM
  TGI: > 100 µM
SNB-19 CNS
  GI50: 40.1 µM
  TGI: > 100 µM
SNB-75 CNS
  GI50: 42.4 µM
  TGI: > 100 µM
SR leukemia
  GI50: 17.5 µM
  TGI: 32.4 µM
SW-620 colon
  GI50: 60.6 µM
  TGI: > 100 µM
T-47D breast
  GI50: 20.4 µM
  TGI: 42.4 µM
TK-10 renal
  GI50: 24.6 µM
  TGI: 60.4 µM
U251 glioblastoma
  GI50: 35.2 µM
  TGI: > 100 µM
UACC-257 melanoma
  GI50: 22.4 µM
  TGI: 43 µM
UO-31 renal
  GI50: 42.6 µM
  TGI: > 100 µM
